Reference: ChEMBL document CHEMBL1201862, “PubChem BioAssay data set” (2004)
Activity calls are given as the source filed them.

How the values were obtained:
Type in all cases: functional
[1] = molecular target: Serine/threonine-protein kinase PLK1 (Homo sapiens, UniProt P53350);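 further: PLK1 measured as one member of a kinome-wide profiling panel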
[2] = molecular target: Rho-associated protein kinase 1 (Homo sapiens, UniProt Q13464);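 further: measured within a broad kinome-wide panel profiling many kinases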
[3] = molecular target: Serine/threonine-protein kinase PAK 1 (Homo sapiens, UniProt Q13153)
[4] = molecular target: Glycogen synthase kinase-3 alpha (Homo sapiens, UniProt P49840);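 further: GSK3A result taken from a broad kinome-wide kinase panel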
[5] = molecular target: RAC-gamma serine/threonine-protein kinase (Homo sapiens, UniProt Q9Y243)
[6] = molecular target: Serine/threonine-protein kinase D2 (Homo sapiens, UniProt Q9BZL6);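 further: measured against PRKD2 as one member of a kinome-wide kinase profiling panel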
[7] = molecular target: Serine/threonine-protein kinase DCLK1 (Homo sapiens, UniProt O15075);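 further: affinity for DCLK1 (listed as DCAMKL1) measured as one member of a kinome-wide kinase profiling panel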
[8] = molecular target: Cyclin-dependent kinase 7 (Homo sapiens, UniProt P50613);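 further: value comes from a kinome-wide kinase profiling panel in which CDK7 is one member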
[9] = molecular target: Activin receptor type-1 (Homo sapiens, UniProt Q04771); test: Navigating the Kinome. Panel member name: ACVR1
[10] = molecular target: MAP kinase-activated protein kinase 2 (Homo sapiens, UniProt P49137);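 further: measured as one member of a kinome-wide kinase panel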
[11] = molecular target: Non-receptor tyrosine-protein kinase TYK2 (Homo sapiens, UniProt P29597)
[12] = molecular target: Casein kinase II subunit alpha (Homo sapiens, UniProt P68400)
[13] = molecular target: Serine/threonine-protein kinase pim-3 (Homo sapiens, UniProt Q86V86);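 further: value obtained as one member of a broad kinase panel profiling effort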
[14] = molecular target: Protein kinase C delta type (Homo sapiens, UniProt Q05655)
[15] = molecular target: Protein kinase C iota type (Homo sapiens, UniProt P41743);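 further: measured within a kinome-wide kinase panel, PRKCI as panel member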
[16] = molecular target: Misshapen-like kinase 1 (Homo sapiens, UniProt Q8N4C8);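 further: kinome panel screen with MINK as the panel member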
[17] = molecular target: Vascular endothelial growth factor receptor 3 (Homo sapiens, UniProt P35916);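 further: value from a kinome-wide profiling panel, with FLT4 as the panel member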
[18] = molecular target: Dual specificity tyrosine-phosphorylation-regulated kinase 4 (Homo sapiens, UniProt Q9NR20)
[19] = molecular target: Serine/threonine-protein kinase Chk1 (Homo sapiens, UniProt O14757);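 further: measured as one member of a kinome-wide kinase profiling panel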
[20] = molecular target: Serine/threonine-protein kinase BRSK1 (Homo sapiens, UniProt Q8TDC3);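 further: measured within a kinome-wide kinase panel, with the target listed as KIAA1811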
[21] = molecular target: Serine/threonine-protein kinase PLK4 (Homo sapiens, UniProt O00444);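 further: PLK4 measured as one member of a kinome-wide kinase profiling panel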
[22] = molecular target: Homeodomain-interacting protein kinase 4 (Homo sapiens, UniProt Q8NE63)
[23] = molecular target: Serine/threonine-protein kinase D3 (Homo sapiens, UniProt O94806);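 further: determined within a kinase panel screen, with PRKCN as the panel member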
[24] = molecular target: ALK tyrosine kinase receptor (Homo sapiens, UniProt Q9UM73);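 further: ALK tested as one member of a kinase panel screen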
[25] = molecular target: Calcium/calmodulin-dependent protein kinase type II subunit gamma (Homo sapiens, UniProt Q13555)
[26] = molecular target: Insulin receptor (Homo sapiens, UniProt P06213);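 further: insulin receptor kinase tested as one member of a kinome-wide kinase panel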
[27] = molecular target: Lymphokine-activated killer T-cell-originated protein kinase (Homo sapiens, UniProt Q96KB5);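 further: value comes from a kinase panel screen in which TOPK was one of the panel members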
[28] = molecular target: MAP kinase-interacting serine/threonine-protein kinase 2 (Homo sapiens, UniProt Q9HBH9)
[29] = molecular target: Calcium/calmodulin-dependent protein kinase type 1 (Homo sapiens, UniProt Q14012)
[30] = molecular target: RAC-alpha serine/threonine-protein kinase (Homo sapiens, UniProt P31749);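 further: AKT1 affinity measured as one member of a kinome-wide kinase profiling panel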
[31] = molecular target: Cyclin-dependent kinase 1 (Homo sapiens, UniProt P06493);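 further: Kinome-wide panel profiling, with the target listed as panel member CDC2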
[32] = molecular target: MAP kinase-activated protein kinase 3 (Homo sapiens, UniProt Q16644);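 further: value comes from a kinome-wide profiling panel in which MAPKAPK3 is one of the panel members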
[33] = molecular target: Calcium/calmodulin-dependent protein kinase type II subunit alpha (Homo sapiens, UniProt Q9UQM7); test: Navigating the Kinome. Panel member name: CAMK2A
[34] = molecular target: Mitogen-activated protein kinase kinase kinase kinase 2 (Homo sapiens, UniProt Q12851);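 further: measured as one member of a kinome-wide kinase panel, with MAP4K2 as the panel entry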
[35] = molecular target: Glycogen synthase kinase-3 beta (Homo sapiens, UniProt P49841);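 further: value comes from a broad kinome profiling panel, with GSK3B as the panel member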
[36] = molecular target: Serine/threonine-protein kinase MRCK alpha (Homo sapiens, UniProt Q5VT25)
[37] = molecular target: Cyclin-dependent kinase 2 (Homo sapiens, UniProt P24941);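 further: CDK2 measured as one member of a broad kinome profiling panel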
[38] = molecular target: Phosphorylase b kinase gamma catalytic chain, liver/testis isoform (Homo sapiens, UniProt P15735);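 further: PHKG2 measured as one member of a kinome-wide kinase panel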
[39] = molecular target: Serine/threonine-protein kinase Nek2 (Homo sapiens, UniProt P51955)
[40] = molecular target: Serine/threonine-protein kinase 17A (Homo sapiens, UniProt Q9UEE5)
[41] = molecular target: Casein kinase I isoform alpha (Homo sapiens, UniProt P48729)
[42] = molecular target: cAMP-dependent protein kinase catalytic subunit alpha (Homo sapiens, UniProt P17612)
[43] = molecular target: Cyclin-dependent kinase 5 (Homo sapiens, UniProt Q00535);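 further: CDK5 measured as one member of a kinase profiling panel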
[44] = molecular target: Serine/threonine-protein kinase pim-1 (Homo sapiens, UniProt P11309)
[45] = molecular target: Serine/threonine-protein kinase PAK 4 (Homo sapiens, UniProt O96013);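 further: value obtained within a kinome profiling panel in which PAK4 was one of the panel members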
[46] = molecular target: Fibroblast growth factor receptor 1 (Homo sapiens, UniProt P11362)
[47] = molecular target: Serine/threonine-protein kinase TAO1 (Homo sapiens, UniProt Q7L7X3)

Measured: Ki

Chain of Serine/threonine-protein kinase BRSK1 (Q8TDC3 whole entry): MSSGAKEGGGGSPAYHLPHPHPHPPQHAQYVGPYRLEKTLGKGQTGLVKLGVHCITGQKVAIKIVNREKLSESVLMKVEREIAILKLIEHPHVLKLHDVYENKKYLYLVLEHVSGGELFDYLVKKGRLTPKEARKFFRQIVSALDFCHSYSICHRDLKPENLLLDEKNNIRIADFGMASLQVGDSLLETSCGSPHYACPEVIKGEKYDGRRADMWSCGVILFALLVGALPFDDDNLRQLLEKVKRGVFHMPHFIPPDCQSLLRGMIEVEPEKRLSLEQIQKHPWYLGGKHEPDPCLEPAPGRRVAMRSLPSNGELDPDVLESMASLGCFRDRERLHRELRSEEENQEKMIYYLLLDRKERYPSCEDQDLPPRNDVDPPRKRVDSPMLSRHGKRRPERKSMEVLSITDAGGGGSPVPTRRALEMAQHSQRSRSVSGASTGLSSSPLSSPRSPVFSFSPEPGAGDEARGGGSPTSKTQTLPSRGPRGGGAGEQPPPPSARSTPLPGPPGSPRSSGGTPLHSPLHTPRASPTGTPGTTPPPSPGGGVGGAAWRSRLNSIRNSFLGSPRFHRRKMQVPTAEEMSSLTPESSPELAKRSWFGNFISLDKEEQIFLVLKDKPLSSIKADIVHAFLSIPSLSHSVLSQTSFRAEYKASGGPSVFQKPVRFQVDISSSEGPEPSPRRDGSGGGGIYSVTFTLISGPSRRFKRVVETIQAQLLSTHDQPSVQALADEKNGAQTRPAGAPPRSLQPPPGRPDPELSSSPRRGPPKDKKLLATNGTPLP
Chain of Non-receptor tyrosine-protein kinase TYK2 (P29597 whole entry): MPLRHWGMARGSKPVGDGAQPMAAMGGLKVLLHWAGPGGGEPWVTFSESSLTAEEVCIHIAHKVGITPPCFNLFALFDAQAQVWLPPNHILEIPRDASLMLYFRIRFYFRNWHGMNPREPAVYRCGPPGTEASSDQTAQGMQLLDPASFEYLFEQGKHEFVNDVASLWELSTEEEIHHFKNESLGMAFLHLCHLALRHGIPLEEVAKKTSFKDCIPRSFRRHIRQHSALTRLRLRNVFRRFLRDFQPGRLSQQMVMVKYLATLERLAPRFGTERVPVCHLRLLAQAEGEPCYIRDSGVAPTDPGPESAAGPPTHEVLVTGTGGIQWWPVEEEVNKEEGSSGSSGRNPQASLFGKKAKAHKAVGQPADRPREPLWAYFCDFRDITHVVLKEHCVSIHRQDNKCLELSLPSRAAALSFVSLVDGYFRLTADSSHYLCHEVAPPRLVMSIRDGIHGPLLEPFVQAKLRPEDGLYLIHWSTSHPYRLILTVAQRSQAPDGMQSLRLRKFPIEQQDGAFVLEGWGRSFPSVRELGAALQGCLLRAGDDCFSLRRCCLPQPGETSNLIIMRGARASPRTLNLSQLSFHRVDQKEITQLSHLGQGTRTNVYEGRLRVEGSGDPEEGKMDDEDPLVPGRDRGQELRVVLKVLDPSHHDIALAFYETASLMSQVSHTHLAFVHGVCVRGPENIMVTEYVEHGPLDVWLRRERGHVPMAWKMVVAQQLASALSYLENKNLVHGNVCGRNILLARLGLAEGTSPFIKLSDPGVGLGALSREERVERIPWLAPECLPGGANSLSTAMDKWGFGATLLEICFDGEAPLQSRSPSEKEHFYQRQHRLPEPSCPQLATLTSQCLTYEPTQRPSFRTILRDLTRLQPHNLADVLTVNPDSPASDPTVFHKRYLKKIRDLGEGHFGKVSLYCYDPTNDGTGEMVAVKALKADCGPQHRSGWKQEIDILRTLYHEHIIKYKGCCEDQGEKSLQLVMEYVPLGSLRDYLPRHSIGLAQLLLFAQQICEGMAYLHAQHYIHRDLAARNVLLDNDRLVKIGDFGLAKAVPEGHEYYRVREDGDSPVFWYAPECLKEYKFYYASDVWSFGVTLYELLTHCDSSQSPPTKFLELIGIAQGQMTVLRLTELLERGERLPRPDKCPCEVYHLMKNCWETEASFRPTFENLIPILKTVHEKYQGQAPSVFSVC
Chain of Homeodomain-interacting protein kinase 4 (Q8NE63 whole entry): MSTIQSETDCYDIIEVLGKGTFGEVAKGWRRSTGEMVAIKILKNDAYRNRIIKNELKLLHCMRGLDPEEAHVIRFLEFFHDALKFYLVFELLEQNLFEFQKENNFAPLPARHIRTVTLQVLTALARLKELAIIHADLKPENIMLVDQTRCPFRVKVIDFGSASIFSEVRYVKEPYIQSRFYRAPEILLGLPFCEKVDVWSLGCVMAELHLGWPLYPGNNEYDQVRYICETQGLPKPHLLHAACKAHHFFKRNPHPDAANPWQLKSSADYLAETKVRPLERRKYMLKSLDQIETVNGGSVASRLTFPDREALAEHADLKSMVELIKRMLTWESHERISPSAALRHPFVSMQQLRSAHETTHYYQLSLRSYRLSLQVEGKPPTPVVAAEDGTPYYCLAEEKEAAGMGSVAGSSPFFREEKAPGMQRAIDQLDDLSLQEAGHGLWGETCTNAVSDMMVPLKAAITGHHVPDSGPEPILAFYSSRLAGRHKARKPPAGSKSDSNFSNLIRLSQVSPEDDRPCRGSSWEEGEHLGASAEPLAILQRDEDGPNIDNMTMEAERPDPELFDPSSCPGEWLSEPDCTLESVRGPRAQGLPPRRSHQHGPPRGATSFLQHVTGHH
Chain of Serine/threonine-protein kinase PLK1 (P53350 whole entry): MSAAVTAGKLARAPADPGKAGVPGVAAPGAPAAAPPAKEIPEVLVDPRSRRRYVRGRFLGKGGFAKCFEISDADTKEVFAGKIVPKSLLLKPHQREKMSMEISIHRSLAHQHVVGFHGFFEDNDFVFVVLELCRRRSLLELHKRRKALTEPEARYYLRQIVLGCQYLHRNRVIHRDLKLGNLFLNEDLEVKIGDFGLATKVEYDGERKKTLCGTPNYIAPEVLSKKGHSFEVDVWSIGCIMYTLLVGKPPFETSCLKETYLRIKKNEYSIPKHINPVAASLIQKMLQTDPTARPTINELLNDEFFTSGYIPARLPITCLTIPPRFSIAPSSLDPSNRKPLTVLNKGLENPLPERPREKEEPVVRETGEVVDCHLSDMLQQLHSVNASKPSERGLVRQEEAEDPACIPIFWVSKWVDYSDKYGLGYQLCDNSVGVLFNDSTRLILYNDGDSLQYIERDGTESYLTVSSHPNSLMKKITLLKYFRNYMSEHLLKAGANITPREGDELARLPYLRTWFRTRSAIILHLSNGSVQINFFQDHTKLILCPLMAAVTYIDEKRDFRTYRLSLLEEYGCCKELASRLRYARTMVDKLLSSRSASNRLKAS
Chain of Protein kinase C iota type (P41743 whole entry): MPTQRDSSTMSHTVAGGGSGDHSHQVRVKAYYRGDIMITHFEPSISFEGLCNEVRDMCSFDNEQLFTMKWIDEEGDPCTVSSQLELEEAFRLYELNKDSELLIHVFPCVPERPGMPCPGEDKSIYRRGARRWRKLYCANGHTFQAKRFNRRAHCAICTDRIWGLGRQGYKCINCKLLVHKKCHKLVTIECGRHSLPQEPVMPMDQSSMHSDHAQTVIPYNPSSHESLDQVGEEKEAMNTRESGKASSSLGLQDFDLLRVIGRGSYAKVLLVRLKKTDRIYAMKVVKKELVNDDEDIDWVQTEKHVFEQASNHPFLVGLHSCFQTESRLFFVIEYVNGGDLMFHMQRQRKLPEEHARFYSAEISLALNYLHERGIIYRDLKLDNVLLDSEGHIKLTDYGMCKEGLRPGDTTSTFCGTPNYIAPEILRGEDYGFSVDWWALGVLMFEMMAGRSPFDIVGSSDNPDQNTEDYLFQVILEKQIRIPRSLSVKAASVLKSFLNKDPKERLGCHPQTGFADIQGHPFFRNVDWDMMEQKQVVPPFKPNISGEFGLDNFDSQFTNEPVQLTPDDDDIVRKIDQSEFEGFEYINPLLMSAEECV
Chain of Glycogen synthase kinase-3 beta (P49841 whole entry): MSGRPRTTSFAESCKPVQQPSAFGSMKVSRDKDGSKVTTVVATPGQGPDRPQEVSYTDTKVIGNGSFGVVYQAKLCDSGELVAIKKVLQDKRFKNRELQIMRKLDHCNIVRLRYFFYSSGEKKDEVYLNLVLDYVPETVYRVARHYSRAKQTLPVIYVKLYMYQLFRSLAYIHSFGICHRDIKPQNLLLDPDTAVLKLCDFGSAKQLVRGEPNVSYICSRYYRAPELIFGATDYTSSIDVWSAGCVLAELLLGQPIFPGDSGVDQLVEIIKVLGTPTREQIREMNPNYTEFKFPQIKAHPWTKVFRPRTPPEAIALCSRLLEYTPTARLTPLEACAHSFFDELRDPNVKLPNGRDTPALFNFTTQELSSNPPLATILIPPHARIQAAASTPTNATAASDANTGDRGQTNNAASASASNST
Chain of Cyclin-dependent kinase 5 (Q00535 whole entry): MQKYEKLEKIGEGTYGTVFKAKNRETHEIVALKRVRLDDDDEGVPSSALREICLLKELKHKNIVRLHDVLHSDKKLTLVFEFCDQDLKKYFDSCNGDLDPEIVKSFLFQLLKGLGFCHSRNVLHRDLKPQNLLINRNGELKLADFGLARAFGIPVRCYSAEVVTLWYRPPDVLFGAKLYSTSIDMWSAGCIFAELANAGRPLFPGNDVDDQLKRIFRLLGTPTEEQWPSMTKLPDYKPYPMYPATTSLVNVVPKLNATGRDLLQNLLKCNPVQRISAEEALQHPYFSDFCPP
Chain of Casein kinase I isoform alpha (P48729 whole entry, canonical isoform): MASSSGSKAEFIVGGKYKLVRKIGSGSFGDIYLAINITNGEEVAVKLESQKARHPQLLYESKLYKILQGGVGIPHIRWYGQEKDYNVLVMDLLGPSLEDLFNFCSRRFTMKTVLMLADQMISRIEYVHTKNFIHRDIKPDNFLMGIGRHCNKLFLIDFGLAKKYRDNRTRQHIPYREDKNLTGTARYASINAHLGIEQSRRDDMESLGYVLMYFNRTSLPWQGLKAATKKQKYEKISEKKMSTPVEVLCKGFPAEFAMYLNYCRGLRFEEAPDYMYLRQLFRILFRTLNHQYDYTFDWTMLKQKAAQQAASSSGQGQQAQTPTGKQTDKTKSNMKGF

NNc1cc(N2CCOCC2)nc(OCCc2ccccn2)n1
inactive: [1] > 7.94 µM | [2] > 6.31 µM | [3] > 10 µM | [4] > 7.94 µM | [5] > 10 µM | [6] > 10 µM | [7] > 10 µM | [8] > 3.98 µM | [9] > 3.98 µM | [10] > 7.94 µM | [12] > 6.31 µM | [13] > 7.94 µM | [14] > 7.94 µM | [15] > 5.01 µM | [16] > 7.94 µM | [17] > 6.31 µM | [18] > 7.94 µM | [19] > 7.94 µM | [21] > 3.98 µM | [22] > 7.94 µM | [23] > 6.31 µM | [24] > 6.31 µM | [25] > 6.31 µM | [26] > 5.01 µM | [27] > 10 µM | [28] > 10 µM | [29] > 5.01 µM | [30] > 7.94 µM | [31] > 7.94 µM | [32] > 10 µM | [33] > 7.94 µM | [34] > 5.01 µM | [35] > 5.01 µM | [36] > 10 µM | [37] > 7.94 µM | [38] > 5.01 µM | [39] > 10 µM | [40] > 3.98 µM | [41] > 5.01 µM | [42] > 3.98 µM | [43] > 6.31 µM | [44] > 6.31 µM | [45] > 5.01 µM | [46] > 3.98 µM | [47] > 5.01 µM
active: [11] 1.58 µM | [20] 7.94 µM
